Laboratory results: patent US20160272617A1, “SUBSTITUTED PHENYLALANINE DERIVATIVES” (BAYER PHARMA AKTIENGESELLSCHAFT, priority 2013, published 2016)
Counter-ions that a name gives are not always drawn.

What was measured:
human factor XIa = biological target: T1, human factor XIa (Homo sapiens, UniProt P03951); experiment: Measurement of FXIa inhibition (fluorogenic peptide substrate Boc-Glu(OBzl)-Ala-Arg-AMC); format: biochemical; conditions: factor XIa from Kordia, 15 min preincubation, 30 min at 22° C., fluorescence
T1 construct: purchased Kordia
Procedure, shortened: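 Released AMC fluorescence (360/460 nm) read after 30 min at 22 °C. The reaction was started with Boc-Glu(OBzl)-Ala-Arg-AMC (10 μM stock) after a 15 min preincubation of the enzyme (0.45 nM stock) with compound (final 50 μM to 0.00013 μM).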

human and animal plasma = experiment: Determination of anticoagulatory activity: activated partial thromboplastin time (aPTT) in plasma; conditions: concentration of test substance which brings about a 1.5-fold extension of the aPTT; plasma species not given
Procedure, shortened: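 Citrated plasma (1:9, 0.11 M citrate; 4000 g, 15 min) from human or animal blood incubated with test compound and cephalin/kaolin PTT reagent for 3 min at 37° C.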

T1 sequence (P03951 388-625 limits assumed): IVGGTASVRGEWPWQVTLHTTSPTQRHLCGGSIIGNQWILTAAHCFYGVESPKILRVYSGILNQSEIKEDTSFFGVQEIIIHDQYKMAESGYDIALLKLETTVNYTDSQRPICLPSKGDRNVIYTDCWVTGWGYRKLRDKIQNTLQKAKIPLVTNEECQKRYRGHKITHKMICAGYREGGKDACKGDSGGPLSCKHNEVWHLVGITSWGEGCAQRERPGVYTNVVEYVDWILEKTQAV
T1 sequence (P03951 19-387 partner limits assumed): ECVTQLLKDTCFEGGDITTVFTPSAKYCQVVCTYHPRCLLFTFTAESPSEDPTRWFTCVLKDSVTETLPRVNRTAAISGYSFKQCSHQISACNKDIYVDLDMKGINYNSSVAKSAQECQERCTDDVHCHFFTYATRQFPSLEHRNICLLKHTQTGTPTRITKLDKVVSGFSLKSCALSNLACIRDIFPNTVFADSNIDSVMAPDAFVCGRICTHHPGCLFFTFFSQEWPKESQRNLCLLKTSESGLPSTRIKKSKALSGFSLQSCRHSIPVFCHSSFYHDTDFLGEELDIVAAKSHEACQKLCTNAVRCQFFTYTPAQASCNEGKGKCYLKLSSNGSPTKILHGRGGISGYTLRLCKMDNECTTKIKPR

Row | SMILES | IC50 (human factor XIa) | aPTT (human and animal plasma)
1 | Cc1cc(C(=O)N[C@H]2CCNC2)ccc1-c1ccc(C[C@H](NC(=O)[C@H]2CC[C@H](CN)CC2)C(=O)Nc2ccc3c(=O)[nH][nH]c3c2)cc1 [Example 25, 4′-{(2S)-2-({[trans-4-(Aminomethyl)cyclohexyl]carbonyl}amino)-3-oxo-3-[(3-oxo-2,3-dihydro-1H-indazol-6-yl)amino]propyl}-2-methyl-N-[(3S)-pyrrolidin-3-yl]biphenyl-4-carboxamide hydrochloride] | 14 nM | 0.14 µmol/L
2 | COCCOCCOCCOCCNC(=O)c1ccc(-c2ccc(C[C@H](NC(=O)[C@H]3CC[C@H](CN)CC3)C(=O)Nc3ccc(-c4nn[nH]n4)cc3)cc2)c(Cl)c1 [Example 26, 4′-[(2S)-2-({[trans-4-(Aminomethyl)cyclohexyl]carbonyl}amino)-3-oxo-3-{[4-(2H-tetrazol-5-yl)phenyl]amino}propyl]-2-chloro-N-(2,5,8, 11-tetraoxatridecan-13-yl)biphenyl-4-carboxamide hydrochloride] | 2.4 nM | 0.19 µmol/L
3 | COCCOCCOCCOCCNC(=O)c1ccc(-c2ccc(C[C@H](NC(=O)[C@H]3CC[C@H](CN)CC3)C(=O)Nc3ccc(-c4nn[nH]n4)cc3)cc2)c(C)c1 [Example 27, 4′-[(2S)-2-({[trans-4-(Aminomethyl)cyclohexyl]carbonyl}amino)-3-oxo-3-{[4-(2H-tetrazol-5-yl)phenyl]amino}propyl]-2-methyl-N-(2,5,8,11-tetraoxatridecan-13-yl)biphenyl-4-carboxamide hydrochloride] | 2.8 nM | 0.24 µmol/L
4 | COCCOCCOCCOCCNC(=O)c1ccc(-c2ccc(C[C@H](NC(=O)[C@H]3CC[C@H](CN)CC3)C(=O)Nc3ccc4c(=O)[nH][nH]c4c3)cc2)c(C)c1 [Example 28, 4′-{(2S)-2-({[trans-4-(Aminomethyl)cyclohexyl]carbonyl}amino)-3-oxo-3-[(3-oxo-2,3-dihydro-1H-indazol-6-yl)amino]propyl}-2-methyl-N-(2,5,8,11-tetraoxatridecan-13-yl)biphenyl-4-carboxamide hydrochloride] | 14 nM | 0.33 µmol/L
5 | CCN(CC)CCCNC(=O)c1ccc(-c2ccc(C[C@H](NC(=O)[C@H]3CC[C@H](CN)CC3)C(=O)Nc3ccc(-c4nn[nH]n4)cc3)cc2)c(C)c1 [Example 29, 4′-[(2S)-2-({[trans-4-(Aminomethyl)cyclohexyl]carbonyl}amino)-3-oxo-3-{[4-(2H-tetrazol-5-yl)phenyl]amino}propyl]-N-[3-(diethylamino)propyl]-2-methylbiphenyl-4-carboxamide hydrochloride] | 3 nM | 0.14 µmol/L
6 | CC1CC(NC(=O)c2ccc(-c3ccc(C[C@H](NC(=O)[C@H]4CC[C@H](CN)CC4)C(=O)Nc4ccc(-c5nn[nH]n5)cc4)cc3)c(Cl)c2)CCN1 (stereo partly drawn) [Example 30, 4′-[(2S)-2-({[trans-4-(Aminomethyl)cyclohexyl]carbonyl}amino)-3-oxo-3-{[4-(2H-tetrazol-5-yl)phenyl]amino}propyl]-2-chloro-N-(2-methylpiperidin-4-yl)biphenyl-4-carboxamide hydrochloride] | 3.2 nM | 0.12 µmol/L
7 | Cc1cc(C(=O)NC2CCNC(C)C2)ccc1-c1ccc(C[C@H](NC(=O)[C@H]2CC[C@H](CN)CC2)C(=O)Nc2ccc3c(=O)[nH][nH]c3c2)cc1 (stereo partly drawn) [Example 31, 4′-{(2S)-2-({[trans-4-(Aminomethyl)cyclohexyl]carbonyl}amino)-3-oxo-3-[(3-oxo-2,3-dihydro-1H-indazol-6-yl)amino]propyl}-2-methyl-N-(2-methylpiperidin-4-yl)biphenyl-4-carboxamide hydrochloride] | 30 nM | 0.22 µmol/L
8 | Cc1cc(C(=O)NC2CCNC(C)C2)ccc1-c1ccc(C[C@H](NC(=O)[C@H]2CC[C@H](CN)CC2)C(=O)Nc2ccc(-c3nn[nH]n3)cc2)cc1 (stereo partly drawn) [Example 32, 4′-[(2S)-2-({[trans-4-(Aminomethyl)cyclohexyl]carbonyl}amino)-3-oxo-3-{[4-(2H-tetrazol-5-yl)phenyl]amino}propyl]-2-methyl-N-(2-methylpiperidin-4-yl)biphenyl-4-carboxamide hydrochloride] | 3.4 nM | 0.09 µmol/L
9 | Cc1cc(C(=O)N[C@H]2CC[C@H](O)CC2)ccc1-c1ccc(C[C@H](NC(=O)[C@H]2CC[C@H](CN)CC2)C(=O)Nc2ccc(-c3nn[nH]n3)cc2)cc1 [Example 33, 4′-[(2S)-2-({[trans-4-(Aminomethyl)cyclohexyl]carbonyl}amino)-3-oxo-3-{[4-(2H-tetrazol-5-yl)phenyl]amino}propyl]-N-(trans-4-hydroxycyclohexyl)-2-methylbiphenyl-4-carboxamide hydrochloride] | 0.78 nM | 0.11 µmol/L
10 | Cc1cc(C(=O)N[C@H]2CC[C@H](N)CC2)ccc1-c1ccc(C[C@H](NC(=O)[C@H]2CC[C@H](CN)CC2)C(=O)Nc2ccc(-c3nn[nH]n3)cc2)cc1 [Example 34, N-(trans-4-Aminocyclohexyl)-4′-[(2S)-2-({[trans-4-(aminomethyl)cyclohexyl]carbonyl}amino)-3-oxo-3-{[4-(2H-tetrazol-5-yl)phenyl]amino}propyl]-2-methylbiphenyl-4-carboxamide hydrochloride] | 1.4 nM | 0.11 µmol/L
11 | Cc1cc(C(=O)NCCCN(C)C)ccc1-c1ccc(C[C@H](NC(=O)[C@H]2CC[C@H](CN)CC2)C(=O)Nc2ccc(-c3nn[nH]n3)cc2)cc1 [Example 35, 4′-[(2S)-2-({[trans-4-(Aminomethyl)cyclohexyl]carbonyl}amino)-3-oxo-3-{[4-(2H-tetrazol-5-yl)phenyl]amino}propyl]-N-[3-(dimethylamino)propyl]-2-methylbiphenyl-4-carboxamide hydrochloride] | 2.3 nM | 0.11 µmol/L
12 | Cc1cc(C(=O)NC2CCNCC2)ccc1-c1ccc(C[C@H](NC(=O)[C@H]2CC[C@H](CN)CC2)C(=O)Nc2ccc(-c3nn[nH]n3)cc2)cc1 [Example 36, 4′-[(2S)-2-({[trans-4-(Aminomethyl)cyclohexyl]carbonyl}amino)-3-oxo-3-{[4-(2H-tetrazol-5-yl)phenyl]amino}propyl]-2-methyl-N-(piperidin-4-yl)biphenyl-4-carboxamide] | 1.7 nM | 0.07 µmol/L
13 | NC[C@H]1CC[C@H](C(=O)N[C@@H](Cc2ccc(-c3ccc(C(=O)NC4CCNCC4)cc3)cc2)C(=O)Nc2ccc(-c3nn[nH]n3)cc2)CC1 [Example 37, 4′-[(2S)-2-({[trans-4-(Aminomethyl)cyclohexyl]carbonyl}amino)-3-oxo-3-{[4-(2H-tetrazol-5-yl)phenyl]amino}propyl]-N-(piperidin-4-yl)biphenyl-4-carboxamide hydrochloride] | 8.5 nM | 0.12 µmol/L
14 | CCN(CC)CCNC(=O)c1ccc(-c2ccc(C[C@H](NC(=O)[C@H]3CC[C@H](CN)CC3)C(=O)Nc3ccc(-c4nn[nH]n4)cc3)cc2)cc1 [Example 38, 4′-[(2S)-2-({[trans-4-(Aminomethyl)cyclohexyl]carbonyl}amino)-3-oxo-3-{[4-(2H-tetrazol-5-yl)phenyl]amino}propyl]-N-{2-[diethylamino]ethyl}biphenyl-4-carboxamide hydrochloride] | 14 nM | 0.42 µmol/L
